Measured values: the supplement of paper PMC11451515

Tested on: NOMO1
Assay: cell viability relative to DMSO control; higher = less cytotoxic
Details: 48 h
How it was run: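 Cells were incubated for 48 h at 37°C before CellTiter-Glo One luminescence was read. The cells were NOMO1 or SEM (500 cells/well) or P12-Ichikawa (1000 cells/well) leukemia cells, adapted for at least four passages in each medium and seeded in 1536-well plates (5 μl). Dosing used library compounds in DMSO applied by pin over 11 threefold points, 47 μM to 0.79 nM. Viability is the per-plate percentage of DMSO wells, with cell-free wells as background.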

[1] = HPLM + 10% dialyzed FBS, 0.000781 µM
[2] = HPLM + 10% dialyzed FBS, 0.00234 µM
[3] = HPLM + 10% dialyzed FBS, 0.00702 µM
[4] = HPLM + 10% dialyzed FBS, 0.0211 µM
[5] = HPLM + 10% dialyzed FBS, 0.0632 µM
[6] = HPLM + 10% dialyzed FBS, 0.19 µM
[7] = HPLM + 10% dialyzed FBS, 0.569 µM
[8] = HPLM + 10% dialyzed FBS, 1.71 µM
[9] = HPLM + 10% dialyzed FBS, 5.12 µM
[10] = HPLM + 10% dialyzed FBS, 15.4 µM
[11] = HPLM + 10% dialyzed FBS, 46.1 µM
[12] = RPMI 5 mM glucose + 10% FBS, 0.000781 µM
[13] = RPMI 5 mM glucose + 10% FBS, 0.00234 µM
[14] = RPMI 5 mM glucose + 10% FBS, 0.00702 µM
[15] = RPMI 5 mM glucose + 10% FBS, 0.0211 µM
[16] = RPMI 5 mM glucose + 10% FBS, 0.0632 µM
[17] = RPMI 5 mM glucose + 10% FBS, 0.19 µM
[18] = RPMI 5 mM glucose + 10% FBS, 0.569 µM
[19] = RPMI 5 mM glucose + 10% FBS, 1.71 µM
[20] = RPMI 5 mM glucose + 10% FBS, 5.12 µM
[21] = RPMI 5 mM glucose + 10% FBS, 15.4 µM
[22] = RPMI 5 mM glucose + 10% FBS, 46.1 µM
[23] = RPMI 5 mM glucose + 10% dialyzed FBS, 0.000781 µM
[24] = RPMI 5 mM glucose + 10% dialyzed FBS, 0.00234 µM
[25] = RPMI 5 mM glucose + 10% dialyzed FBS, 0.00702 µM
[26] = RPMI 5 mM glucose + 10% dialyzed FBS, 0.0211 µM
[27] = RPMI 5 mM glucose + 10% dialyzed FBS, 0.0632 µM
[28] = RPMI 5 mM glucose + 10% dialyzed FBS, 0.19 µM
[29] = RPMI 5 mM glucose + 10% dialyzed FBS, 0.569 µM
[30] = RPMI 5 mM glucose + 10% dialyzed FBS, 1.71 µM
[31] = RPMI 5 mM glucose + 10% dialyzed FBS, 5.12 µM
[32] = RPMI 5 mM glucose + 10% dialyzed FBS, 15.4 µM
[33] = RPMI 5 mM glucose + 10% dialyzed FBS, 46.1 µM

Structure (SMILES): COc1cc2nc(N(C)CCCNC(=O)C3CCCO3)nc(N)c2cc1OC (stereo unspecified)
- cell viability [1]: 63.4%
- cell viability [2]: 82.7%
- cell viability [3]: 99.4%
- cell viability [4]: 77.8%
- cell viability [5]: 96.3%
- cell viability [6]: 90.6%
- cell viability [7]: 79.7%
- cell viability [8]: 89.7%
- cell viability [9]: 31.3%
- cell viability [10]: 28%
- cell viability [11]: 20%
- cell viability [12]: 70.7%
- cell viability [13]: 74%
- cell viability [14]: 71.9%
- cell viability [15]: 75.4%
- cell viability [16]: 73.2%
- cell viability [17]: 81.8%
- cell viability [18]: 72.1%
- cell viability [19]: 71.9%
- cell viability [20]: 33.2%
- cell viability [21]: 36%
- cell viability [22]: 10%
- cell viability [23]: 61.6%
- cell viability [24]: 76.5%
- cell viability [25]: 68.8%
- cell viability [26]: 85%
- cell viability [27]: 77.6%
- cell viability [28]: 77.9%
- cell viability [29]: 75.4%
- cell viability [30]: 87.4%
- cell viability [31]: 51.9%
- cell viability [32]: 61.9%
- cell viability [33]: 15.1%

Structure (SMILES): N=C(CCSCc1csc(N=C(N)N)n1)N[S+](N)(=O)[O-]
- cell viability [1]: 87%
- cell viability [2]: 95.6%
- cell viability [3]: 110%
- cell viability [4]: 101%
- cell viability [5]: 99.1%
- cell viability [6]: 83.2%
- cell viability [7]: 101%
- cell viability [8]: 115%
- cell viability [9]: 101%
- cell viability [10]: 91.8%
- cell viability [11]: 107%
- cell viability [12]: 80.2%
- cell viability [13]: 94.7%
- cell viability [14]: 94.8%
- cell viability [15]: 92%
- cell viability [16]: 92.2%
- cell viability [17]: 97.5%
- cell viability [18]: 93.8%
- cell viability [19]: 88.1%
- cell viability [20]: 99.1%
- cell viability [21]: 86.8%
- cell viability [22]: 88.3%
- cell viability [23]: 84.7%
- cell viability [24]: 96%
- cell viability [25]: 89.9%
- cell viability [26]: 92.1%
- cell viability [27]: 100%
- cell viability [28]: 106%
- cell viability [29]: 95.7%
- cell viability [30]: 93.7%
- cell viability [31]: 100%
- cell viability [32]: 97%
- cell viability [33]: 103%

Structure (SMILES): Cc1cn2c(-c3cn[nH]c3)cnc2c(Nc2ccc(C(=O)N3CCNCC3)cc2F)n1
- cell viability [1]: 109%
- cell viability [2]: 102%
- cell viability [3]: 114%
- cell viability [4]: 107%
- cell viability [5]: 96.5%
- cell viability [6]: 100%
- cell viability [7]: 112%
- cell viability [8]: 82.7%
- cell viability [9]: 91.2%
- cell viability [10]: 70%
- cell viability [11]: 34%
- cell viability [12]: 105%
- cell viability [13]: 91.6%
- cell viability [14]: 101%
- cell viability [15]: 88%
- cell viability [16]: 88.3%
- cell viability [17]: 88%
- cell viability [18]: 89.2%
- cell viability [19]: 85.3%
- cell viability [20]: 86.2%
- cell viability [21]: 78.7%
- cell viability [22]: 36.1%
- cell viability [23]: 89.2%
- cell viability [24]: 93%
- cell viability [25]: 93.8%
- cell viability [26]: 98.1%
- cell viability [27]: 88.7%
- cell viability [28]: 98.8%
- cell viability [29]: 92.5%
- cell viability [30]: 93.1%
- cell viability [31]: 80.5%
- cell viability [32]: 62.5%
- cell viability [33]: 29.9%

Structure (SMILES): Nc1ccccc1NC(=O)c1ccc(CNC(=O)OCc2cccnc2)cc1
- cell viability [1]: 103%
- cell viability [2]: 127%
- cell viability [3]: 111%
- cell viability [4]: 108%
- cell viability [5]: 118%
- cell viability [6]: 110%
- cell viability [7]: 81.1%
- cell viability [8]: 47%
- cell viability [9]: 22.9%
- cell viability [10]: 12.7%
- cell viability [11]: 3.22%
- cell viability [12]: 103%
- cell viability [13]: 92.5%
- cell viability [14]: 103%
- cell viability [15]: 99%
- cell viability [16]: 108%
- cell viability [17]: 103%
- cell viability [18]: 88.7%
- cell viability [19]: 58.6%
- cell viability [20]: 33.9%
- cell viability [21]: 10.7%
- cell viability [22]: 3.59%
- cell viability [23]: 115%
- cell viability [24]: 107%
- cell viability [25]: 110%
- cell viability [26]: 115%
- cell viability [27]: 123%
- cell viability [28]: 97.3%
- cell viability [29]: 94.2%
- cell viability [30]: 53.9%
- cell viability [31]: 24.7%
- cell viability [32]: 9.54%
- cell viability [33]: 2.99%

Structure (SMILES): C[C@H]1[C@H](NC(=O)/C(=N/OC(C)(C)C(=O)O)c2csc(N)n2)C(=O)N1[S+](=O)([O-])O
- cell viability [1]: 98.5%
- cell viability [2]: 98%
- cell viability [3]: 98.9%
- cell viability [4]: 111%
- cell viability [5]: 108%
- cell viability [6]: 110%
- cell viability [7]: 113%
- cell viability [8]: 88.2%
- cell viability [9]: 102%
- cell viability [10]: 85.3%
- cell viability [11]: 90.4%
- cell viability [12]: 105%
- cell viability [13]: 98.3%
- cell viability [14]: 101%
- cell viability [15]: 108%
- cell viability [16]: 107%
- cell viability [17]: 105%
- cell viability [18]: 107%
- cell viability [19]: 104%
- cell viability [20]: 92.3%
- cell viability [21]: 108%
- cell viability [22]: 103%
- cell viability [23]: 94.2%
- cell viability [24]: 101%
- cell viability [25]: 94.1%
- cell viability [26]: 92.3%
- cell viability [27]: 97.3%
- cell viability [28]: 94.7%
- cell viability [29]: 91.7%
- cell viability [30]: 99.2%
- cell viability [31]: 85.2%
- cell viability [32]: 91.1%
- cell viability [33]: 83.3%

Structure (SMILES): CC(C)[C@@H](N(CCCN)C(=O)C1=CC=C(C)C=C1)C/2=N/C3=CC(=CC=C3C(=O)N2CC4=CC=CC=C4)Cl
- cell viability [1]: 88.4%
- cell viability [2]: 25.4%
- cell viability [3]: 29.7%
- cell viability [4]: 21.4%
- cell viability [5]: 20.8%
- cell viability [6]: 27.1%
- cell viability [7]: 28%
- cell viability [8]: 24.4%
- cell viability [9]: 20%
- cell viability [10]: 15.8%
- cell viability [11]: 11.4%
- cell viability [12]: 81.9%
- cell viability [13]: 16%
- cell viability [14]: 16.1%
- cell viability [15]: 17.8%
- cell viability [16]: 16.9%
- cell viability [17]: 15.3%
- cell viability [18]: 15.3%
- cell viability [19]: 14.3%
- cell viability [20]: 9.97%
- cell viability [21]: 9.55%
- cell viability [22]: 7.35%
- cell viability [23]: 78.1%
- cell viability [24]: 24%
- cell viability [25]: 24.8%
- cell viability [26]: 21.9%
- cell viability [27]: 22.9%
- cell viability [28]: 24.4%
- cell viability [29]: 18.7%
- cell viability [30]: 15.8%
- cell viability [31]: 11.7%
- cell viability [32]: 16.3%
- cell viability [33]: 11.1%

Structure (SMILES): CCc1cncnc1N1CCN(Cc2nc3cc(C(F)(F)F)ccc3[nH]2)CC1
- cell viability [1]: 105%
- cell viability [2]: 114%
- cell viability [3]: 114%
- cell viability [4]: 98.5%
- cell viability [5]: 108%
- cell viability [6]: 97.7%
- cell viability [7]: 97.6%
- cell viability [8]: 94%
- cell viability [9]: 107%
- cell viability [10]: 92%
- cell viability [11]: 64.2%
- cell viability [12]: 95.4%
- cell viability [13]: 87.8%
- cell viability [14]: 99.5%
- cell viability [15]: 93.1%
- cell viability [16]: 90.8%
- cell viability [17]: 93.4%
- cell viability [18]: 90.1%
- cell viability [19]: 90.1%
- cell viability [20]: 81.3%
- cell viability [21]: 79.9%
- cell viability [22]: 74.7%
- cell viability [23]: 95.8%
- cell viability [24]: 82.6%
- cell viability [25]: 93.8%
- cell viability [26]: 100%
- cell viability [27]: 95.3%
- cell viability [28]: 85.5%
- cell viability [29]: 88.8%
- cell viability [30]: 97.4%
- cell viability [31]: 88.6%
- cell viability [32]: 75.8%
- cell viability [33]: 70.3%
